In patent US20080269279A1, “Substituted furo[2,3-B] pyridine derivatives as cannabinoid-1 receptor modulators” (priority 2007, published 2008):
pEC50, pIC50: −log10 of the molar value. Where two headings read alike, the source gives them in different places.

Tests used:
[1] = target: T1, recombinant human CB1 receptor (Homo sapiens, UniProt P21554); test: Cannabinoid Receptor-1 (CB1) Binding Assay ([3H]CP-55940 displacement)
T1 construct: expressed in transfected cells
Method: Binding affinity determination is based on recombinant human CB1 receptor expressed in Chinese Hamster Ovary (CHO) cells (Felder et al, Mol. Pharmacol. 48: 443-450, 1995). Total assay volume is 250 μl (240 μl CB1 receptor membrane solution plus 5 μl test compound solution plus 5 μl [3H]CP-55940 solution). Final concentration of [3H]CP-55940 is 0.6 nM. Binding buffer contains 50 mM Tris-HCl, pH 7.4, 2.5 mM EDTA, 5 mM MgCl2, 0.5 mg/mL fatty acid free bovine serum albumin and protease inhibitors (Cat#P8340, from Sigma). To initiate the binding reaction, 5 μl of radioligand solution is added, the mixture is incubated with gentle shaking on a shaker for 1.5 h at 30° C. The binding is terminated by using 96-well harvester and filtering through GF/C filter presoaked in 0.05% polyethylenimine. The bound radiolabel is quantitated using scintillation counter. Apparent binding affinities for various compounds are calculated from IC50 values (DeBlasi et al., Trends Pharmacol Sci 10: 227-229, 1989).

[2] = target: T1, recombinant human CB1 receptor; test: Cannabinoid Receptor-1 (CB1) Functional Activity Assay (intracellular cAMP in CB1-CHO cells); type: cell-based; conditions: for functional mode at CB1 receptor: CB1 functional activity assay, cAMP
Method: The functional activation of CB1 receptor is based on recombinant human CB1 receptor expressed in CHO cells (Felder et al, Mol. Pharmacol. 48: 443-450, 1995). To determine the agonist activity or inverse agonist activity of any test compound, 50 ul of CB1-CHO cell suspension are mixed with test compound and 70 ul assay buffer containing 0.34 mM 3-isobutyl-1-methylxanthine and 5.1 uM of forskolin in 96-well plates. The assay buffer is comprised of Earle's Balanced Salt Solution supplemented with 5 mM MgCl2 1 mM glutamine, 10 mM HEPES, and 1 mg/mL bovine serum albumin. The mixture is incubated at room temperature for 30 minutes, and terminated by adding 30 ul/well of 0.5M HCl. The total intracellular cAMP level is quantitated using the New England Nuclear Flashplate and cAMP radioimmunoassay kit.
To determine the antagonist activity of test compound, the reaction mixture also contains 0.5 nM of the agonist CP55940 (or 50 nM of methanandamide), and the reversal of the CP55940 (or methanandamide) effect is quantitated with increasing concentration of the test compound. Intracellular cAMP is determined as described above. An IC50 value for the test compound is calculated from the titration curve.

[3] = tested on: human GABA α1β3β2 receptors; test: GABAa, 3H-muscimol binding assay; conditions: activity at 10 μM as percentage of activity of control compound P18 at 10 μM (increase of 3H-muscimol binding)
Method: Membranes from recombinant Ltk cells expressing human GABA α1β3β2 receptors were suspended in an ice-cold solution of 100 mM KCl, 10 mM KH2PO4, adjusted to pH=7.4 with 1 M KOH. Tritiated muscimol (PerkinElmer, Wellesley, Mass.) at a concentration of 2 nM, and serial five-fold dilutions of test compounds at 10 μM, 2.0 μM, 400 nM, 80 nM, 16 nM, 3.2 nM, 0.64 nM and 0.13 nM were mixed in 96-well plates containing 200 μL of membrane suspension. Cold muscimol and compound P18 were used as negative and positive controls respectively. The assay mixture was incubated at 4° C. for 2 hours, then harvested on GF/C filter plates and washed with ice-cold 50 mM Tris-Ci buffer. The filter plates were dried and counted in a Wallac MicroBeta® Trilux detector (Model 1450-030; PerkinElmer, Wellesley, Mass.), and the data were downloaded and analyzed using Prism 3.0. The activity of compound P18 at 10 μM was used as reference for the test compounds, and it was expressed as increasing ^3H-muscimol binding by 100%, whereas cold muscimol at 2 μM antagonized ^3H-muscimol binding by 100%. The tested compound's activity at 10 μM was expressed as a percentage of compound P18's activity at 10 μM.
As a reference, the parent compound (the compound not substituted with a R^4 heteroaryl, such as pyrazole or 1,2,4-oxadiazole, as indicated below) is also shown with its Gamma Amino Butyric Acid (GABA) Receptor activity. […] As a result, the compounds of the present invention in which R^4 is a heteroaryl, such as pyrazole or 1,2,4-oxadiazole, have the unexpected benefits of minimizing off target activity at the GABA receptor.
Note: % GABA is defined as the GABA activity of the indicated compound expressed as a percentage of the activity of control compound P18. NA=data not available.

[4] = recombinant human CB1 receptor expressed in CHO cells, 0.6 nM [3H]CP-55940, read-out: CB1 binding IC50
[5] = CB1-CHO cells, forskolin-stimulated cAMP, read-out: EC50 in the CB1 functional activity assay

T1 sequence (P21554 whole entry): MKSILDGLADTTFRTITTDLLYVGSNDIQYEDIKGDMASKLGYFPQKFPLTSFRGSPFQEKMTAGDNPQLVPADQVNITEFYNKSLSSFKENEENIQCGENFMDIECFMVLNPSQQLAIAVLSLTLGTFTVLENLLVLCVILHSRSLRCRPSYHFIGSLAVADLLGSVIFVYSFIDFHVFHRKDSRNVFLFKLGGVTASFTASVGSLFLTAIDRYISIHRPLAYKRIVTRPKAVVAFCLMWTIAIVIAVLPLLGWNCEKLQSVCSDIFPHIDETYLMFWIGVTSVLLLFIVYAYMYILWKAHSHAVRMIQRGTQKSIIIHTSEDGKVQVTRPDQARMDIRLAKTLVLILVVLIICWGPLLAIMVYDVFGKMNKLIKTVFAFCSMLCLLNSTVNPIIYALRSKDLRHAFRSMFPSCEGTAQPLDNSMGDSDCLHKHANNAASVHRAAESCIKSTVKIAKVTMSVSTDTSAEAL

Row | SMILES | pIC50 [1, 4] | pEC50 [2, 5] | functional mode at CB1 receptor [2] | % GABA Example [3] | pIC50 [1] | pEC50 [2]
1 | CC(C)(C)C(=O)c1oc2nc(-c3ccc(-c4cn[nH]c4)cc3Cl)c(-c3ccc(Cl)cc3)cc2c1N [Example 7, 1-{3-Amino-5-(4-chlorophenyl)-6-[2-chloro-4-(1H-pyrazol-4-yl)phenyl]furo[2,3-b]pyridin-2-yl}-2,2-dimethylpropan-1-one] | 9.00 | > 7.70 | functional inverse agonists | 17% |  | 
2 | CC(=O)c1c(C(=O)C(C)(C)C)oc2nc(-c3ccc(-c4c[nH]nc4C)cc3Cl)c(-c3ccc(Cl)cc3)cc12 [Example 40, 1-[3-Acetyl-6-[2-chloro-4-(3-methyl-1H-pyrazol-4-yl)phenyl]-5-(4-chlorophenyl)furo[2,3-b]pyridin-2-yl]-2,2-dimethylpropan-1-one] |  |  | functional inverse agonists | 12% | 9.00 | > 7.70
3 | CC(=O)Nc1c(C(=O)C(C)(C)O)oc2nc(-c3ccc(-c4c[nH]nc4C)cc3Cl)c(-c3ccc(Cl)cc3)cc12 [Example 41, N-[6-[2-Chloro-4-(3-methyl-1H-pyrazol-4-yl)phenyl]-5-(4-chlorophenyl)-2-(2-hydroxy-2-methylpropanoyl)furo[2,3-b]pyridin-3-yl]acetamide] | 8.30 | > 7.70 | functional inverse agonists | 35% |  | 
4 | CC(=O)c1c(C(=O)C(C)C)oc2nc(-c3ccc(-c4c[nH]nc4C)cc3Cl)c(-c3ccc(Cl)cc3)cc12 [Example 38, 1-[3-Acetyl-6-[2-chloro-4-(3-methyl-1H-pyrazol-4-yl)phenyl]-5-(4-chlorophenyl)furo[2,3-b]pyridin-2-yl]-2-methylpropan-1-one] | 8.52 | > 7.70 | functional inverse agonists | 39% |  | 
5 | Cc1n[nH]cc1-c1ccc(-c2nc3oc(C(=O)C(C)(C)C)c(CO)c3cc2-c2ccc(Cl)cc2)c(Cl)c1 [Example 37, 1-[6-[2-Chloro-4-(3-methyl-1H-pyrazol-4-yl)phenyl]-5-(4-chlorophenyl)-3-(hydroxymethyl)furo[2,3-b]pyridin-2-yl]-2,2-dimethylpropan-1-one] | 9.00 | > 7.70 | functional inverse agonists | 14% |  | 
6 | CC(C)(C)C(=O)c1oc2nc(-c3ccc(-c4ncon4)cc3Cl)c(-c3ccc(Cl)cc3)cc2c1NC(=O)CO [Example 43, N-[6-[2-Chloro-4-(1,2,4-oxadiazol-3-yl)phenyl]-5-(4-chlorophenyl)-2-(2,2-dimethylpropanoyl)furo[2,3-b]pyridin-3-yl]-2-hydroxyacetamide] | 9.40 | > 7.70 | functional inverse agonists | 41% |  | 
7 | Cc1n[nH]cc1-c1ccc(-c2nc3oc(C(=O)C(C)(C)C)c(C(N)=O)c3cc2-c2ccc(Cl)cc2)c(Cl)c1 [Example 3, 6-[2-chloro-4-(3-methyl-1H-pyrazol-4-yl)phenyl]-5-(4-chlorophenyl)-2-(2,2-dimethylpropanoyl)furo[2,3-b]pyridine-3-carboxamide] | 9.00 | > 7.70 | functional inverse agonists | 9% |  | 
8 | CC(=O)Nc1c(C(=O)C(C)(C)O)oc2nc(-c3ccc(-c4cn[nH]c4)cc3Cl)c(-c3ccc(Cl)cc3)cc12 [Example 1, N-[5-(4-Chlorophenyl)-6-[2-chloro-4-(1H-pyrazol-4-yl)phenyl]-2-(2-hydroxy-2-methylpropanoyl)furo[2,3-b]pyridin-3-yl]acetamide] | 8.70 | > 7.70 | functional inverse agonists | 38% |  | 
